Literature values, collected in doi:10.1101/2025.05.01.651722v1 (bioRxiv, 2025).
No end group written: not given here.

Details: solubility maintained by hydrophilic arginine tail

## H-RLTRKRGLKLAGGGGGRRRRRRRRR [ApoB^11]
  hydrophobicity of the peptide: highly hydrophobic
